Results reported in ChEMBL document CHEMBL1201862, “PubChem BioAssay data set” (2004).
Active and inactive are the calls of the source.

What was measured:
[1] = non-specific 3'UTR reporter inhibition in Clone20-Shn3RL – cell-based, Renilla luciferase, cherry-picked, counter-screen for Shn3 inhibitor project, dose response (AID 624133); type: functional
[2] = loss of viability in HepG2 cells – cell-based, CellTiter-Glo, cherry-picked, cytotoxicity control for Shn3 inhibitor project, dose response (AID 624134); type: functional
[3] = reduction of Shn3 3'UTR-driven luciferase in osteoblasts – cell-based, Clone20 osteoblasts, firefly luciferase, cherry-picked, dose response (AID 624132); type: functional;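 also: firefly luciferase luminescence from reporter carrying the Shn3 3'UTR in osteoblasts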
[4] = target: T1, Rac GTPase-activating protein 1 (Homo sapiens, UniProt Q9H0H5); assay: blockers of MgcRacGAP-driven Rac1 GTP hydrolysis – biochemical, ADP Hunter fluorescence, primary and confirmatory, confirmation (AID 624330); type: functional
T1 sequence (Q9H0H5 whole entry): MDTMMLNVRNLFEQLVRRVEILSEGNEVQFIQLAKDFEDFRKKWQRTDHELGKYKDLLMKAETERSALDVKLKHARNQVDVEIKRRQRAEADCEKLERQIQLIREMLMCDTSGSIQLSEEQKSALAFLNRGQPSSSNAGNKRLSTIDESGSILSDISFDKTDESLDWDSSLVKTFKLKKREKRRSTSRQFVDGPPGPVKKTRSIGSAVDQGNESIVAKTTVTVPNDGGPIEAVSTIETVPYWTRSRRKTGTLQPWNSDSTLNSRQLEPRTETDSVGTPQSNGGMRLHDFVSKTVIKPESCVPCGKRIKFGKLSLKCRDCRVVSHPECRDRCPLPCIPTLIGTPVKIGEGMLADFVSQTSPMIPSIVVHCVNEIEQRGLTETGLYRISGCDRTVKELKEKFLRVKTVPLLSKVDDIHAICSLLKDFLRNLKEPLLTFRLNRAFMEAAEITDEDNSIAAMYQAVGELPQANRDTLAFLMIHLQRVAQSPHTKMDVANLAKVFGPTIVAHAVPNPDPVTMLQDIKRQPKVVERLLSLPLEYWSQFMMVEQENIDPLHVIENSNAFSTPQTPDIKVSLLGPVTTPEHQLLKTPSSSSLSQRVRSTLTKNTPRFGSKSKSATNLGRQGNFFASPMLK

[5] = target: T2, Corticotropin-releasing factor receptor 2/Corticotropin-releasing factor-binding protein (Homo sapiens, UniProt P24387+Q13324); assay: activators of CRF receptor 2 with binding protein – uHTS hits, confirmation (AID 602473); type: functional; details: read-out: EC50_Mean
T2 sequence (Q13324 whole entry): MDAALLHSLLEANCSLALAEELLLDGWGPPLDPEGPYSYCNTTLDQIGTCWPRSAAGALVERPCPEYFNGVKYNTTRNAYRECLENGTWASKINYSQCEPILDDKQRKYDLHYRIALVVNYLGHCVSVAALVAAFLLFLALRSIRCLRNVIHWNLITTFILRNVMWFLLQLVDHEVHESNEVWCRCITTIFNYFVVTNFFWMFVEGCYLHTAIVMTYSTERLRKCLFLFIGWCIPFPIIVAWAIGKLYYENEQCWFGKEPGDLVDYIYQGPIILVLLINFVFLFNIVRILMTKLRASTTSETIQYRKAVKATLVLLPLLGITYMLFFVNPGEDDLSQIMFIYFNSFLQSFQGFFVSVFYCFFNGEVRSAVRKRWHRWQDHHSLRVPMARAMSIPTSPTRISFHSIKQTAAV
T2 sequence (P24387 whole entry): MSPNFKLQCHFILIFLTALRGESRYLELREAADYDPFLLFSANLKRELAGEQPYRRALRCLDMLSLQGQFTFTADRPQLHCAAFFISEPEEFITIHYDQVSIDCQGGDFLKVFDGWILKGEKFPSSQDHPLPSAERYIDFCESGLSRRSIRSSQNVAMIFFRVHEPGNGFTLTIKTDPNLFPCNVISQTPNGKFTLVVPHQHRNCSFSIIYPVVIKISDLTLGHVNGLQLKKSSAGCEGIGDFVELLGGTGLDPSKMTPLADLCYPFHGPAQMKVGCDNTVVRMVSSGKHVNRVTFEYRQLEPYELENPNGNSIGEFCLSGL

[6] = target: Cytochrome P450 2C19 (Homo sapiens, UniProt P33261); assay: Cytochrome panel assay with activity outcomes. Panel member name: p450-cyp2c19 Compounds with AC50 equal or less than 10 uM are considered active; type: functional; details: read-out: AC50
Sequence of Cytochrome P450 2C19 (P33261 whole entry): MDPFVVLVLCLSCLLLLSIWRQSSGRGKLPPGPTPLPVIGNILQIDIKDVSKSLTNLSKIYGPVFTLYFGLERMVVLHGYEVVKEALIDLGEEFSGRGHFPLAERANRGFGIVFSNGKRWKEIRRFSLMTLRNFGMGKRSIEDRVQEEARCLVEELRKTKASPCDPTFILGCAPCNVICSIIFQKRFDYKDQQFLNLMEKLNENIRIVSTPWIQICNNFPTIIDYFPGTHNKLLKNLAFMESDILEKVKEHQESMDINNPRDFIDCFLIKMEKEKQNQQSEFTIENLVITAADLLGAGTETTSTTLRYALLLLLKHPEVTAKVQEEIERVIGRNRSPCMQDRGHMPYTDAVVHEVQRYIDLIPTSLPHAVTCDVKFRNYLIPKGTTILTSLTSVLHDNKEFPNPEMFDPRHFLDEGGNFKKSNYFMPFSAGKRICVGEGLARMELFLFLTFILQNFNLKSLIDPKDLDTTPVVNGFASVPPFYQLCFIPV

[7] = target: Cytochrome P450 3A4 (Homo sapiens, UniProt P08684);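 also: CYP3A4 tested as one member of a cytochrome P450 panel screen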
Sequence of Cytochrome P450 3A4 (P08684 whole entry): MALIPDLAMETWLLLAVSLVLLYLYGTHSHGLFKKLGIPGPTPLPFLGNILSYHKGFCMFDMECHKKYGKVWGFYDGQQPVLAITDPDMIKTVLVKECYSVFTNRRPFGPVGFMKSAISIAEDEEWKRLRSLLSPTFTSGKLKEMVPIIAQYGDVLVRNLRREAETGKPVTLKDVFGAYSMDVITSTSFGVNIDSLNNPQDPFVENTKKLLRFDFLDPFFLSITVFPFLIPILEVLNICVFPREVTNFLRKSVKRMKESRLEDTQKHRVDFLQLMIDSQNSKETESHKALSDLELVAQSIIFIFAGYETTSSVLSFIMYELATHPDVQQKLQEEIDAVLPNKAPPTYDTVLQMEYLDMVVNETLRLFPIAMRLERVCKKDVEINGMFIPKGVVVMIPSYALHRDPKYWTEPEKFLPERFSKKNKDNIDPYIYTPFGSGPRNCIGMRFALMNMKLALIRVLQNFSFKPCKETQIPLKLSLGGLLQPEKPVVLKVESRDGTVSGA

[8] = target: Cytochrome P450 2D6 (Homo sapiens, UniProt P10635)
Sequence of Cytochrome P450 2D6 (P10635 whole entry): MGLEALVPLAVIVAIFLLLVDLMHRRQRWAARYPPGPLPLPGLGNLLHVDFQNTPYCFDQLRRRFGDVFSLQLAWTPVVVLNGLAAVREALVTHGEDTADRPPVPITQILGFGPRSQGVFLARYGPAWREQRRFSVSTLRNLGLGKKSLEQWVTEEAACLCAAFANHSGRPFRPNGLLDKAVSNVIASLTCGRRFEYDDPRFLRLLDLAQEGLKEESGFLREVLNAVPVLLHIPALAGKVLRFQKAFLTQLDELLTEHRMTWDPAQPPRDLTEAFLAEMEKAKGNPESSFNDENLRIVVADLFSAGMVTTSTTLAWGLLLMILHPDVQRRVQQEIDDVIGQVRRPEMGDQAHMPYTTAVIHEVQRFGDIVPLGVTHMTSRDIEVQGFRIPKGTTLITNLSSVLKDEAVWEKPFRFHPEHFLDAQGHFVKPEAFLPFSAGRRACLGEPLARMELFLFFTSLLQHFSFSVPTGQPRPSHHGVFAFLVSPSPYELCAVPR

[9] = target: T3, Heat shock factor protein 1 (Mus musculus, UniProt P38532); assay: decrease of HSF1-responsive luciferase luminescence – cell-based, NIH3T3, dose retest, confirmation (AID 2382); type: functional;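 also: NIH3T3 fibroblasts with HSF1-driven luciferase reporter stressed by proteasome inhibitor MG132; luminescence from HSF1-driven luciferase expression after 8 hours of MG132 stress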
T3 sequence (P38532 whole entry): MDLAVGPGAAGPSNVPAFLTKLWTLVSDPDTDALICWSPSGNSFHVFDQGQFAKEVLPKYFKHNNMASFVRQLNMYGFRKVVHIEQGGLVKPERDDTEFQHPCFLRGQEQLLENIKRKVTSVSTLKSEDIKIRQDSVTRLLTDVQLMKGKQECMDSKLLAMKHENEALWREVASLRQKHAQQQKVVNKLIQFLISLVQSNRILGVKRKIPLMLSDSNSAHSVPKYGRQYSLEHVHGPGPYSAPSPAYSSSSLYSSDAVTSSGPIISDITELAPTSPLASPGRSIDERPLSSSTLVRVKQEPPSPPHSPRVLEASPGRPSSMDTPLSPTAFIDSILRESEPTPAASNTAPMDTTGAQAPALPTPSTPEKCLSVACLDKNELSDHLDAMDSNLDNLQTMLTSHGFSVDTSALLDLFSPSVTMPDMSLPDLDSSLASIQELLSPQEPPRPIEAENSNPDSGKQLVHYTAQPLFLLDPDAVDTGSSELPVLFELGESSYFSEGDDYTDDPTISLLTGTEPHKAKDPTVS

[10] = viability of HCT116 lacking mutant beta-catenin – cell-based, human colon tumor, dose response (AID 1045); type: functional;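 also: HCT116 colon tumor cells with beta catenin knocked out; cells exposed to compound for 60 hours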
[11] = viability of PTEN-deleted HCT116 cells – cell-based, HCT116 PTEN knockout, dose response (AID 1047); type: functional;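 also: HCT116 colon tumor cells with PTEN knocked out; cells exposed to compound for 60 hours before readout; potency for loss of cell viability measured by luminescence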
[12] = NIH3T3 cell viability loss – ATP luminescence, mouse fibroblasts, counter-screen, dose response (AID 2010); type: functional, cell-based;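 also: cells exposed to compound for about 90 hours before reading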
[13] = Trypanosoma cruzi growth suppression in host cells – NIH3T3 host cells, beta-gal luminescence, confirmation (AID 2044); type: functional, cell-based;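 also: intracellular parasites grown in NIH/3T3 mouse fibroblasts as host cells; luminescent beta-galactosidase reporter signal from transgenic T. cruzi replicating inside host cells; inhibitors lower the luminescence signal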
[14] = Luminescence Cell-Based Dose Retest to Confirm Inhibitors of Cancer Stem Cells. [Related pubchem assays (depositor defined):AID2717, AID2721]; type: functional; details: Homo sapiens
[15] = target: Cytochrome P450 2C9 (Homo sapiens, UniProt P11712)
Sequence of Cytochrome P450 2C9 (P11712 whole entry): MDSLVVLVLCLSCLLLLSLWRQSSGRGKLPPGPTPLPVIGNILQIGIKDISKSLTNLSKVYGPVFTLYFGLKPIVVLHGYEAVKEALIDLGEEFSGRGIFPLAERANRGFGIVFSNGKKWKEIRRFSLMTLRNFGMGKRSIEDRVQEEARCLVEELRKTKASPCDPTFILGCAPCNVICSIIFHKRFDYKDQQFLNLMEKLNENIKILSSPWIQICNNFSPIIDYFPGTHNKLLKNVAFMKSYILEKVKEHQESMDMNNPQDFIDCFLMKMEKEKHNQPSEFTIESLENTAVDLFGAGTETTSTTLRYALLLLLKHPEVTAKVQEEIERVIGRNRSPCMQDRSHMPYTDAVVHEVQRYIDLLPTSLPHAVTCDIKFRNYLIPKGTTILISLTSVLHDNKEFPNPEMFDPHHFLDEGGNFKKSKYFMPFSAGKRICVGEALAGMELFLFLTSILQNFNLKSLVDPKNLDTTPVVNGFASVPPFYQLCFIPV

[16] = cells; type: functional

Q: Which AC50 [1] does the source give for `COc1cc(OC)c(OC)cc1CNc1cc(C)ccc1OC` here?
A: 7.92 µM (active)

Q: And the AC50 [2]?
A: 47.2 µM (active)

Q: What about the AC50 [3] of the same molecule?
A: 18.1 µM (active)

Q: Which results are given for `O=C(OCC12CC3CC(CC(C3)C1)C2)c1ccc(NCc2cc(O)ccc2O)cc1`?
A: AC50 [1]: 7.26 µM (active); AC50 [2]: 66.7 µM (active); AC50 [3]: 3.25 µM (active)

Q: Which results are given for `Cc1ccc2oc(=O)c(/C=C(\O)c3ccccc3)nc2c1`?
A: IC50 [4]: 48.6 µM (active); EC50 [5]: 12.1 µM (active)

Q: Which AC50 [6] does the source give for `CCc1cc2c(nc1CC)CCN(CC/C(C)=N/OC[C@@H](O)[C@@H]1O[C@@H]3OC(C)(C)O[C@@H]3[C@H]1O)C2` here?
A: 0.0316 µM (inconclusive)

Q: What about the AC50 [7] of the same molecule?
A: 6.31 µM (inconclusive)

Q: And the AC50 [8]?
A: 6.31 µM (inconclusive)

Q: For `Cc1cccc(Oc2ncc(-c3ccc(Cl)cc3)cn2)c1C`, which AC50 [7] is on record?
A: 25.1 µM (inconclusive)

Q: And the AC50 [8]?
A: 17.8 µM (inconclusive)

Q: For `CCOc1ccccc1OCCOCCOc1c(Cl)cccc1Cl`, which EC50 [9] is on record?
A: > 195 µM (not active)

Q: What does the source list for `c1ncc(-c2ccoc2)c(NC2CC2)n1`?
A: AC50 [6]: 39.8 µM (inconclusive); AC50 [8]: 25.1 µM (inconclusive)

Q: For `COC(=O)c1[nH]c2ccc(C)cc2c1NC(=O)NC1CCCCC1`, which EC50 [10] is on record?
A: 26.5 µM (active)

Q: What about the EC50 [11] of the same molecule?
A: 20.2 µM (active)

Q: For `COc1ccc(-c2ncc3ccccn23)cc1OC`, which IC50 [4] is on record?
A: 126 µM (active)

Q: Which AC50 [1] does the source give for `CN(c1cccc(Cl)c1)S(=O)(=O)c1cccc(C(=O)NCc2ccncc2)c1` here?
A: 0.664 µM (active)

Q: What about the AC50 [2] of the same molecule?
A: 61.5 µM (active)

Q: What about the AC50 [3] of the same molecule?
A: < 0.26 µM (active)

Q: Which EC50 [12] does the source give for `O=C(Nc1ccc2c(c1)OCCO2)c1cccc2nc3ccccc3nc12` here?
A: > 60 µM (not active)

Q: What about the EC50 [10] of the same molecule?
A: 47 µM (active)

Q: What about the EC50 [13] of the same molecule?
A: 2.09 µM (active)

Q: What about the EC50 [11] of the same molecule?
A: 93.9 µM (active)

Q: What about the AC50 [8] of the same molecule?
A: 8.91 µM (inconclusive)

Q: And the AC50 [14]?
A: 2.59 µM (active)

Q: What does the source list for `N#Cc1ccc(C(c2nnnn2C2CCCC2)N2CCC(Cc3ccccc3)CC2)cc1` (configuration not stated)?
A: AC50 [8]: 10 µM (inconclusive); AC50 [15]: 11.2 µM (inconclusive)

Q: With `CCc1ccc(C(=O)NC(CCSC)C(=O)OC)cc1` (configuration not stated) as the molecule, how does the EC50 [9] read?
A: > 195 µM (not active)

Q: With `N#CC1=C(N)Oc2[nH]nc(CSc3ccccc3)c2C12C(=O)Nc1ccccc12` (configuration not stated) as the molecule, how does the EC50 [9] read?
A: > 195 µM (not active)

Q: Which EC50 [5] does the source give for `O=S(=O)(NCC1(N2CCOCC2)CCCCC1)c1ccc(Cl)cc1C(F)(F)F` here?
A: 5.65 µM (active)

Q: Which EC50 [9] does the source give for `CCN1C(=O)/C(=C/Nc2ccccc2)OC1=S` here?
A: > 195 µM (not active)

Q: Which AC50 [6] does the source give for `CC(C)c1nccn1Cc1ccc(Cl)cc1Cl` here?
A: 2 µM (inconclusive)

Q: What about the AC50 [8] of the same molecule?
A: 3.16 µM (inconclusive)

Q: Which EC50 [10] does the source give for `COc1ccc(-c2cc(C(F)(F)F)nc(N3CCN(C)CC3)n2)cc1OC` here?
A: 30.2 µM (active)

Q: What about the EC50 [11] of the same molecule?
A: 29.2 µM (active)

Q: What about the AC50 [8] of the same molecule?
A: 28.2 µM (inconclusive)

Q: With `COC(=O)[C@@H](NC(=O)c1cc(COc2cncc(Cl)c2)on1)c1ccccc1` as the molecule, how does the IC50 [16] read?
A: 5.52 µM (active)

Q: Which EC50 [9] does the source give for `CCOc1ccc(CNC(c2ccccc2)c2ccccc2)cc1` here?
A: > 195 µM (not active)

Q: Which EC50 [5] does the source give for `COCCNC(=S)N/N=C/c1ccc(-c2ccc([N+](=O)[O-])cc2)o1` here?
A: 5.95 µM (active)
